± gives the expanded uncertainty stated by the source.
Columns and labels:
[1] = Liquid; for mass density: 101.33 kPa
[2] = refractive index (Na D-line) (dimensionless); settings: 101.33 kPa, Liquid, Standard Abbe refractometry

Row | mass density ([1]; 293.2 K) | Normal boiling temperature [1] | refractive index ([2]; 298.2 K) | mass density ([1]; 298.2 K) | refractive index ([2]; 293.2 K) | SMILES
1 | 1087.74 ± 0.65 kg/m3 | 214.1 ± 0.2 °C | 1.4242 ± 0.0012 |  |  | COC(=O)CCCC(=O)OC [dimethyl pentanedioate]
2 |  | 118.1 ± 0.2 °C |  | 1047.22 ± 0.28 kg/m3 | 1.3719 ± 0.0012 | CC(=O)O [acetic acid]

Source: the NIST ThermoML archive (doi:10.1021/je049571n)
